Measured values: patent US20230348444A1, “NOVEL COMPOUNDS FOR USE IN THE TREATMENT OF DISEASES ASSOCIATED WITH ANGIOTENSIN II” (Vicore Pharma AB, priority 2020, published 2023)

Columns and labels:
CYP1A = molecular target: T1, CYP1A (Homo sapiens, UniProt P05177); assay: CYP inhibition in human liver microsomes (Eurofins protocol ITEMG232); format: in vitro ADME; settings: substrate phenacetin; for CYP1A Inh %: 10 μM; for inhibition at 10 µM: probe phenacetin, read-out: CYP1A Inh %
T1 construct: using isoform-specific substrates incubated with human liver microsomes; tissue Eurofins ITEMG232; host or cells: human liver microsomes
T1 sequence (P05177 2-516 limits assumed): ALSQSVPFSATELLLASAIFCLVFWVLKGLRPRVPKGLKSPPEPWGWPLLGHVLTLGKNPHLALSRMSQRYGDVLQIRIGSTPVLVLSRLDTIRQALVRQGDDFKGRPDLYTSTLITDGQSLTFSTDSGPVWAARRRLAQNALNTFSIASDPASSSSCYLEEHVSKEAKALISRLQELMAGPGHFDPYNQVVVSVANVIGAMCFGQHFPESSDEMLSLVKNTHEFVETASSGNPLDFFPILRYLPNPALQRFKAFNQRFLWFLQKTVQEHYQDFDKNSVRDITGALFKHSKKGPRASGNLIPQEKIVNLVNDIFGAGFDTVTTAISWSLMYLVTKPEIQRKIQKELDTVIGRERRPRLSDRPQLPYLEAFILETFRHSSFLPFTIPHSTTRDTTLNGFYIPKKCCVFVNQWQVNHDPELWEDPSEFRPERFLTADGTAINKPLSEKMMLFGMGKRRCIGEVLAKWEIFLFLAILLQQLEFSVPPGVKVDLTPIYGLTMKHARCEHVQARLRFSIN
Protocol: (§1) The following substrates were used; CYP1A phenacetin, CYP2B6 bupropion, CYP2C8 paclitaxel and amodiaquine, CYP2C9 diclofenac, CYP2C19 omeprazole, CYP2D6 dextromethorphan, CYP3A midazolam and testosterone.
(§2) At the end of the incubation, the formation of metabolite was monitored by HPLC-MS/MS as the peak area response.

CYP2B6 = molecular target: T2, CYP2B6 (Homo sapiens, UniProt P20813); assay: as above; format: in vitro ADME; settings: substrate bupropion; for CYP2B6 Inh %: 10 μM; for inhibition at 10 µM: probe bupropion, read-out: CYP2B6 Inh %
T2 construct: using isoform-specific substrates incubated with human liver microsomes; tissue Eurofins ITEMG232; host or cells: human liver microsomes
T2 sequence (P20813 1-491): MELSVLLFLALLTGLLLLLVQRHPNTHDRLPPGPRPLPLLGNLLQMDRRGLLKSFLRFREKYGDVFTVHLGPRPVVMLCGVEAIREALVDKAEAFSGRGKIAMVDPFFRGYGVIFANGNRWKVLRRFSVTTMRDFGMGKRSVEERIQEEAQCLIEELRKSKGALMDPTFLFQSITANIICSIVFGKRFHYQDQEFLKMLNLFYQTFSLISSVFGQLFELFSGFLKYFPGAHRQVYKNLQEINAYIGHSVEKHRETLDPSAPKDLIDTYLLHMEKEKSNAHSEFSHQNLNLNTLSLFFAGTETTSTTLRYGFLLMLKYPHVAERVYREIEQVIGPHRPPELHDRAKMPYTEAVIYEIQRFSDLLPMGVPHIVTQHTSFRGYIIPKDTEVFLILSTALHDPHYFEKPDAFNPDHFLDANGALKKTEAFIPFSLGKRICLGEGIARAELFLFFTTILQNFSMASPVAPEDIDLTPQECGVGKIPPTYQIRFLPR
Protocol: as §1, §2

CYP2C19 = molecular target: T3, CYP2C19 (Homo sapiens, UniProt P33261); assay: as above; format: in vitro ADME; settings: substrate omeprazole; for CYP2C19 Inh %: 10 μM; for inhibition at 10 µM: probe omeprazole, read-out: CYP2C19 Inh %
T3 construct: using isoform-specific substrates incubated with human liver microsomes; tissue Eurofins ITEMG232; host or cells: human liver microsomes
Protocol: as §1, §2

CYP2D6 = molecular target: T4, CYP2D6 (Homo sapiens, UniProt P10635); assay: as above; format: in vitro ADME; settings: substrate dextromethorphan; for CYP2D6 Inh %: 10 μM; for inhibition at 10 µM: probe dextromethorphan, read-out: CYP2D6 Inh %
T4 construct: tissue Eurofins ITEMG232; host or cells: human liver microsomes
Protocol: as §1, §2

[1] = molecular target: T5, human recombinant AT2 receptor (Homo sapiens, UniProt P50052); assay: biochemical
T5 sequence (P50052 1-363): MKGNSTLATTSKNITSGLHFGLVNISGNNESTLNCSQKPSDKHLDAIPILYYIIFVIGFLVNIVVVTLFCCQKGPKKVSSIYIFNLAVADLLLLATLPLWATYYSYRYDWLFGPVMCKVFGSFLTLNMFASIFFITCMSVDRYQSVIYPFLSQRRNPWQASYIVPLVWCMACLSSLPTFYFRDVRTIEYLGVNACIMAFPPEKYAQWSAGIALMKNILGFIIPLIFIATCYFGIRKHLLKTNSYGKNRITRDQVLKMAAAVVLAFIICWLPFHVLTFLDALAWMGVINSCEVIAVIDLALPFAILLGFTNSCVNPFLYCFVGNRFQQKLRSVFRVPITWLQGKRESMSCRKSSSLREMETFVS
Protocol: (§3) Compounds were evaluated for binding to the human recombinant AT2 and AT1 receptor according to Eurofins protocol ITEM26 and ITEM24 using a radiometric scintillation assay.

[2] = molecular target: T6, human recombinant AT1 receptor (Homo sapiens, UniProt P30556); assay: biochemical
T6 sequence (P30556 1-359): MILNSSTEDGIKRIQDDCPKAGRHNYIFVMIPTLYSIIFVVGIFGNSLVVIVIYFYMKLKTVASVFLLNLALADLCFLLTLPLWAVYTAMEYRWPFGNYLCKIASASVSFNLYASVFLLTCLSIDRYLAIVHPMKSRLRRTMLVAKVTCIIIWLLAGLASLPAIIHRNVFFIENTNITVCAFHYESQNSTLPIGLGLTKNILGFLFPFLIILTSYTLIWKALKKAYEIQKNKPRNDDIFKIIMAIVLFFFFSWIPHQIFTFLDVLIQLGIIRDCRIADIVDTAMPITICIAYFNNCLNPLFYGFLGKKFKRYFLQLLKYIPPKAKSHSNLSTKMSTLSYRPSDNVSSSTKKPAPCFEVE
Protocol: as §3

T4 sequence (P10635 whole entry): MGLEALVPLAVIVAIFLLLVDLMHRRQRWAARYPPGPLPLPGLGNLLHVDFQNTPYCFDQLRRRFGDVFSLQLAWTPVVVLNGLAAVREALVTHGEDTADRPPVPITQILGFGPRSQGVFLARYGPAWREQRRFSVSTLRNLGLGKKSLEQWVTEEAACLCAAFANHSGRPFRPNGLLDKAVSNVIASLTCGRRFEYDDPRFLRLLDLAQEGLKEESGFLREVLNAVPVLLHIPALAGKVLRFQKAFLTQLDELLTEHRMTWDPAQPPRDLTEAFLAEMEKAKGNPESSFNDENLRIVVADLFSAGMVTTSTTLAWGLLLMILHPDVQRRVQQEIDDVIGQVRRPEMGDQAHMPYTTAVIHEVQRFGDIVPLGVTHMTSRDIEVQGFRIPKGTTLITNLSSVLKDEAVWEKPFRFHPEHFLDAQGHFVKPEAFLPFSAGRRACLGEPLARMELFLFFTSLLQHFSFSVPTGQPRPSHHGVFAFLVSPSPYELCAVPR
T3 sequence (P33261 whole entry, canonical isoform): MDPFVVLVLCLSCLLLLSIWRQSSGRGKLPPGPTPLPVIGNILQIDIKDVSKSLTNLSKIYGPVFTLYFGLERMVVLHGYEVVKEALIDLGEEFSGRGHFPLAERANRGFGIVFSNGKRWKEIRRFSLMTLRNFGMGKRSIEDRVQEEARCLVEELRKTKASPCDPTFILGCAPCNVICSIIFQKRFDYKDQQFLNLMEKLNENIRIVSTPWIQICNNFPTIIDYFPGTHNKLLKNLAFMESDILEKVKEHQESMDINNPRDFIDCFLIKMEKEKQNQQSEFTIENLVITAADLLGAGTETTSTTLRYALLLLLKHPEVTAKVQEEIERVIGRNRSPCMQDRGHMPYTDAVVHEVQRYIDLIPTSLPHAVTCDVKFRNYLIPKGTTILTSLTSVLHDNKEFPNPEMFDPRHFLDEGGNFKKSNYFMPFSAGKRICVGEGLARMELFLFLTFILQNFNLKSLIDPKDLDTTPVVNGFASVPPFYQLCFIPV

Structure (SMILES)	CYP1A Inh % (CYP1A) [%]	CYP2B6 Inh % (CYP2B6) [%]	CYP2C19 Inh % (CYP2C19) [%]	CYP2D6 Inh % (CYP2D6) [%]	inhibition at 10 µM (CYP1A) [%]	inhibition at 10 µM (CYP2B6) [%]	inhibition at 10 µM (CYP2C19) [%]	inhibition at 10 µM (CYP2D6) [%]	IC50 [1] [nM]	IC50 [2] [nM]
CCOC(=O)NS(=O)(=O)c1sc(CC(C)C)cc1-c1ccc(Cn2ccnc2C)c(F)c1.O=C(O)C(F)(F)F [Example 1, Ethyl (3-(3-fluoro-4-((2-methyl-1H-imidazol-1-yl)methyl)phenyl)-5-isobutylthiophen-2-yl)sulfonvicarbamate trifluoroacetic acid]	37	39	37	45						
COCCOC(=O)NS(=O)(=O)c1sc(CC(C)C)cc1-c1ccc(Cn2ccnc2C)c(F)c1.O=C(O)C(F)(F)F [Example 3]	−13	36	39	44						
CCc1nccn1Cc1ccc(-c2cc(CC(C)C)sc2S(=O)(=O)NC(=O)OCc2ccc(F)cc2)cc1F.O=C(O)C(F)(F)F [Example 6, 4-Fluorobenzyl (3-(4((2-ethyl-1H-imidazol-1-yl)methyl)-3-fluorophenyl)-5-isobutylthio-phen-2-yl)sulfonylcarbamate trifluoroacetic acid]	35	30	52	50						
CCOC(=O)NS(=O)(=O)c1sc(CC(C)C)cc1-c1ccc(Cn2ccnc2CC)c(F)c1.O=C(O)C(F)(F)F [Example 7, Ethyl (3-(4-((2-ethyl-1H-imidazol-1-yl)methyl)-3-fluorophenyl)-5-isobutylthiophen-2-30 yl)sulfonylcarbamate trifluoroacetic acid]	21	26	41	39						
CCOC(=O)NS(=O)(=O)c1sc(CC(C)C)cc1-c1ccc(Cn2ccnc2C(C)C)c(F)c1.O=C(O)C(F)(F)F [Example 8, Ethyl (3-(3-fluoro-4-((2-isopropyl-1H-imidazol-1-yl)methyl)phenyl)-5-isobutylthio-phen-2-yl)sulfonylcarbamate trifluoroacetic acid]	−13	36	39	44						
Cc1nccn1Cc1c(F)cc(-c2cc(CC(C)C)sc2S(=O)(=O)NC(=O)OCCO)cc1F [Example 18, 2-Hydroxyethyl (3-(3,5-difluoro-4-((2-methyl-1H-imidazol-1-yl)methyl)phenv1)-5-isobutylthiophen-2-yl)sulfonylcarbamate]	15.2	33.3	5.9	48.8						
Cc1nccn1Cc1ccc(-c2cc(CC(C)C)sc2S(=O)(=O)NC(=O)OCCOC(=O)C(C)(C)C)cc1F [Example 19, 2-((((3-(3-Fluoro-4-((2-methyl-1H-imidazol-1-yl)methyl)phenyl)-5-isobutylthiophen-2-yl)sulfonyl)carbamoyl)oxy)ethyl pivalate]					84.3	26.9	54.1	31.3	4.1	9000
CC(C)Cc1cc(-c2ccc(Cn3ccnc3C(C)(C)C)c(F)c2)c(S(=O)(=O)NC(=O)c2ccccn2)s1 [Example 27, N-((3-(4-((2-(Tert-Butyl)-1H-imidazol-1-yl)methyl)-3-fluorophenyl)-5-isobutylthio-phen-2-yl)sulfonyl)picolinamide]					29	25	43.2	20.1	1.82	2300
